Assay [1] concerns the target hNav1.5 (Homo sapiens, UniProt Q14524). The experiment in a line: cell-based.
For assay [2], the target named is hNav1.3 (Homo sapiens, UniProt Q9NY46). Description: cell-based. The conditions noted are these: IonWorks Quattro, read-out: IWQ Use Nav1.3. On the technique in general: Patch clamp records ionic current or voltage across a cell membrane.

Each structure is given as a SMILES string. Where two headings read alike, the source gives them in different places. Positions of bridges follow the written chain, without caps; N, C: chain ends. Residues, ends and D or L forms follow the SMILES beside them.

Chain of hNav1.3 (Q9NY46 whole entry, looked up): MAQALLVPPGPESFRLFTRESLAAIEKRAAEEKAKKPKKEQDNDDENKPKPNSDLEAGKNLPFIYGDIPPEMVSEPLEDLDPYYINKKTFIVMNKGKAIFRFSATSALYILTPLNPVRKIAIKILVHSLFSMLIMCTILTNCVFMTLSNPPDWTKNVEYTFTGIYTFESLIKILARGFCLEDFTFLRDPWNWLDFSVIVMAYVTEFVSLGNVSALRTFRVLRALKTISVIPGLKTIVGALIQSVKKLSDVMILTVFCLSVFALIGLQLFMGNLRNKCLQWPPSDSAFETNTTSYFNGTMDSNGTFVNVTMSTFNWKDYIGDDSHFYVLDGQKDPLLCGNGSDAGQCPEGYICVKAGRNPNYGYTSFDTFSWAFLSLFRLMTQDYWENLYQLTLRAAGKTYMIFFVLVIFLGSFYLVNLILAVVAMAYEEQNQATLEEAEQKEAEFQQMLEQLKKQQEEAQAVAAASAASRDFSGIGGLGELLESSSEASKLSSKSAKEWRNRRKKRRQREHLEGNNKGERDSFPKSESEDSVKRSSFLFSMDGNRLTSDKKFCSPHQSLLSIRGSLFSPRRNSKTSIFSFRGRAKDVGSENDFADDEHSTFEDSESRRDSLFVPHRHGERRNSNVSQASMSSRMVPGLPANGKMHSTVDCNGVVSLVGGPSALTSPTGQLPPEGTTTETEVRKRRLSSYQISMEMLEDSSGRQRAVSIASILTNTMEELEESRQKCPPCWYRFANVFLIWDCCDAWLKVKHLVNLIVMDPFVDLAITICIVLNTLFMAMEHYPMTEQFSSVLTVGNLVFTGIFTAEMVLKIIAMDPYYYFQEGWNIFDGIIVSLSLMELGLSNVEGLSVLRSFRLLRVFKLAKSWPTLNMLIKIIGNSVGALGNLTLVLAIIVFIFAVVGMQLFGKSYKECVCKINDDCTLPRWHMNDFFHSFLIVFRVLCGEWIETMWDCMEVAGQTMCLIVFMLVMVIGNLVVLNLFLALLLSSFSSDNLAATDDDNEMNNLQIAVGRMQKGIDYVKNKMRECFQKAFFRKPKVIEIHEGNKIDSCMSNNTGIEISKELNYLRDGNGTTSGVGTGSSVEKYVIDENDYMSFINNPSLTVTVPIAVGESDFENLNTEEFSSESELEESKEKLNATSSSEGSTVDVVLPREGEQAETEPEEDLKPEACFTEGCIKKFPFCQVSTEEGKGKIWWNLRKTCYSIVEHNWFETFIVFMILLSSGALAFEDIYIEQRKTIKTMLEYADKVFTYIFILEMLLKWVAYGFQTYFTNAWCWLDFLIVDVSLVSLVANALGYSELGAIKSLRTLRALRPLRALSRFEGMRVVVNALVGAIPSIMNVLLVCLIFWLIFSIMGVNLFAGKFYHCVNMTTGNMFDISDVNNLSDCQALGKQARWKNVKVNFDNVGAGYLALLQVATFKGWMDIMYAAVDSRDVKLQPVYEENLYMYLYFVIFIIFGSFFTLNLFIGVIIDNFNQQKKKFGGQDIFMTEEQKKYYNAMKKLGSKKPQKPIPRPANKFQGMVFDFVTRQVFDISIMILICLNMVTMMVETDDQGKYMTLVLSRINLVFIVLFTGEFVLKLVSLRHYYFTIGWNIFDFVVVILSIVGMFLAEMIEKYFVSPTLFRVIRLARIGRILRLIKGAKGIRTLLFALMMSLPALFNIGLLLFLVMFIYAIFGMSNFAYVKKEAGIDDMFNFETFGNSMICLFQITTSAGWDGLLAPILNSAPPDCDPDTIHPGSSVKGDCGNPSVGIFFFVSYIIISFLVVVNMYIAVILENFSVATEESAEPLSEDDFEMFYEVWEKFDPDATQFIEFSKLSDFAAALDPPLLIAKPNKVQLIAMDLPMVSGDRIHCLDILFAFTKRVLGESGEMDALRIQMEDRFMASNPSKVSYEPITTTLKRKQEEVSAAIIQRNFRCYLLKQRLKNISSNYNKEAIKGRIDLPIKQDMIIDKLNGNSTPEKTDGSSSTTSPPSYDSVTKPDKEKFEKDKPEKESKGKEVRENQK
Chain of hNav1.5 (Q14524 whole entry, looked up): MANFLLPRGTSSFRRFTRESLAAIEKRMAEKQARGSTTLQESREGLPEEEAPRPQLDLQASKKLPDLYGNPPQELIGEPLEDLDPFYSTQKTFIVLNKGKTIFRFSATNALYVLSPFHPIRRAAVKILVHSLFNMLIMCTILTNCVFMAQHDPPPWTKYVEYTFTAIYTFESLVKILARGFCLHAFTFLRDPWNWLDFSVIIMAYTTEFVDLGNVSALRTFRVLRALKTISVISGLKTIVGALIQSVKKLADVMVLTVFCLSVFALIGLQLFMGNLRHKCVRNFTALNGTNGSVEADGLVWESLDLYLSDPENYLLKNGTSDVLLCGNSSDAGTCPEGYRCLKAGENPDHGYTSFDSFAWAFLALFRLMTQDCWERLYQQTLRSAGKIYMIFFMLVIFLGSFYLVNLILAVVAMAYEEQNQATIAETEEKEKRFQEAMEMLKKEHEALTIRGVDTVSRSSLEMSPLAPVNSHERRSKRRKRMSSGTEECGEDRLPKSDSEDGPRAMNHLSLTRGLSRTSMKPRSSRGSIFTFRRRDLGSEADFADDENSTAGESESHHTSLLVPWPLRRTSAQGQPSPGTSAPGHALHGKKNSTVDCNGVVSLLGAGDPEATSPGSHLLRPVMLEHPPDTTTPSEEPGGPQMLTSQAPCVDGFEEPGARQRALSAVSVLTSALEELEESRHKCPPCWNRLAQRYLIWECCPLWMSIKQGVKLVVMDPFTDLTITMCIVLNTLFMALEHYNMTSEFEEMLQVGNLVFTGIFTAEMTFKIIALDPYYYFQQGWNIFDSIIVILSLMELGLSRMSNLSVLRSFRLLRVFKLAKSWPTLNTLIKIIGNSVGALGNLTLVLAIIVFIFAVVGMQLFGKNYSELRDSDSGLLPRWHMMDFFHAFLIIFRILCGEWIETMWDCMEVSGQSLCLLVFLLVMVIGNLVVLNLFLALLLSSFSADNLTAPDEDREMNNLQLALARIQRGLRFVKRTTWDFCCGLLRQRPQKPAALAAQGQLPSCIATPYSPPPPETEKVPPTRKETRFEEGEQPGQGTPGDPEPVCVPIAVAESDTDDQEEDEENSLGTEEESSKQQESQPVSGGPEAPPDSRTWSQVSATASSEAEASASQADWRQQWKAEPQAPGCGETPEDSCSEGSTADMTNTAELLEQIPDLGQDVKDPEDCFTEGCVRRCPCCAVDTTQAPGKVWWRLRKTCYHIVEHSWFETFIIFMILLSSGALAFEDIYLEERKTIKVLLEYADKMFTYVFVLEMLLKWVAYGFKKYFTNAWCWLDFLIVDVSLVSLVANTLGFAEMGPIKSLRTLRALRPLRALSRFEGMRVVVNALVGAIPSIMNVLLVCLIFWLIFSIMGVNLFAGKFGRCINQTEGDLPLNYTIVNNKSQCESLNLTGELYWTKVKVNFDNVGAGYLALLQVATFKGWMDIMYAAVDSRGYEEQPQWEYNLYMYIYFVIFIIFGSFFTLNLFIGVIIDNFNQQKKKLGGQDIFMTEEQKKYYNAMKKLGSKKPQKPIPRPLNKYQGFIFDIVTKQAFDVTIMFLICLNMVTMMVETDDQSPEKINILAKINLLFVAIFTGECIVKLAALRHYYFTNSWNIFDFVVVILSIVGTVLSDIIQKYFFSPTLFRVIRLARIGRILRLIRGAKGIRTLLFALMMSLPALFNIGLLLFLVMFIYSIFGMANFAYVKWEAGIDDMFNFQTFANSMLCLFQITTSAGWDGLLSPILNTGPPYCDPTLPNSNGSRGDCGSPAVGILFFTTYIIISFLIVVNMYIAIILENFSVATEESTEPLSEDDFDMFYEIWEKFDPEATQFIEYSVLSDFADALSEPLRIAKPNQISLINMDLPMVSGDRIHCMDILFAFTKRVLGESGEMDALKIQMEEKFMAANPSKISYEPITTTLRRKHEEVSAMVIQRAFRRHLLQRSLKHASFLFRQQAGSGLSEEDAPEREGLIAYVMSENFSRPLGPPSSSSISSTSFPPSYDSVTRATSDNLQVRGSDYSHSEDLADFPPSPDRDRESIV

On to `CC[C@H](C)[C@@H]1NC(=O)[C@@H]2CSSC[C@@H]3NC(=O)[C@H](C(C)C)NC(=O)[C@H](CC(C)C)NC(=O)[C@H](CC(N)=O)NC(=O)[C@@H]4CCCN4C(=O)[C@H](CCCNC(=N)N)NC(=O)[C@H](CSSC[C@H](NC(=O)[C@@H](N)CC(=O)O)C(=O)N[C@@H](CC(C)C)C(=O)NCC(=O)N[C@@H](Cc4ccccc4)C(=O)N[C@@H](CCSC)C(=O)N[C@@H](CCCNC(=N)N)C(=O)N[C@@H](CCC(=O)O)C(=O)N2)NC(=O)[C@H](CSSC[C@@H](C(=O)N[C@@H](CCCCN)C(=O)N[C@@H](Cc2ccc(O)cc2)C(=O)N[C@H](C(=O)N[C@@H](Cc2ccccc2)C(N)=O)C(C)C)NC(=O)[C@H](Cc2c[nH]c4ccccc24)NC(=O)[C@H](CCCCN)NC(=O)[C@H](Cc2cnc[nH]2)NC(=O)[C@H]([C@@H](C)O)NC(=O)[C@H](CCCNC(=N)N)NC(=O)[C@H](CO)NC3=O)NC(=O)[C@H](CCCCN)NC(=O)[C@H](CC(=O)O)NC(=O)[C@H](CC(N)=O)NC(=O)[C@H](CC(=O)O)NC(=O)[C@@H]2CCCN2C1=O` [[Glu8]GpTx-1(1-34)] (H-DCLGFMRECIPDNDKCCRPNLVCSRTHKWCKYVF-NH2; disulfide 2-17, 9-23, 16-30), for which the IC50 in assay [1] (IWQ Use Nav1.5 (μM)) was 24.9 µM; in assay [2] (use-dependent block, hNav1.3), 1.36 µM.

As to `CC[C@H](C)[C@@H]1NC(=O)[C@@H]2CSSC[C@@H]3NC(=O)[C@H](C(C)C)NC(=O)[C@H](CC(C)C)NC(=O)[C@H](CC(N)=O)NC(=O)[C@@H]4CCCN4C(=O)[C@H](CCCNC(=N)N)NC(=O)[C@H](CSSC[C@H](NC(=O)[C@@H](N)CC(=O)O)C(=O)N[C@@H](CC(C)C)C(=O)NCC(=O)N[C@@H](Cc4ccccc4)C(=O)N[C@@H](CCSC)C(=O)N[C@@H](CCCNC(=N)N)C(=O)N[C@@H](CCCCN)C(=O)N2)NC(=O)[C@H](CSSC[C@@H](C(=O)N[C@@H](CCCCN)C(=O)N[C@@H](Cc2ccc(O)cc2)C(=O)N[C@H](C(=O)N[C@@H](Cc2ccccc2)C(N)=O)C(C)C)NC(=O)[C@H](Cc2c[nH]c4ccccc24)NC(=O)[C@H](CCCCN)NC(=O)[C@H](Cc2cnc[nH]2)NC(=O)[C@H]([C@@H](C)O)NC(=O)[C@H](CCCNC(=N)N)NC(=O)[C@H](CO)NC3=O)NC(=O)[C@H](CCCCN)NC(=O)[C@H](CC(=O)O)NC(=O)[C@H](CC(N)=O)NC(=O)[C@H](C)NC(=O)[C@@H]2CCCN2C1=O` [compound 4] (H-DCLGFMRKCIPANDKCCRPNLVCSRTHKWCKYVF-NH2; disulfide 2-17, 9-23, 16-30), the values for the IC50 in assay [1] (IWQ Use Nav1.5 (μM)) and in assay [2] (Use) were 8.05 µM and 0.13 µM, respectively.

`CC[C@H](C)[C@@H]1NC(=O)[C@@H]2CSSC[C@@H]3NC(=O)[C@H](C(C)C)NC(=O)[C@H](CC(C)C)NC(=O)[C@H](C)NC(=O)[C@@H]4CCCN4C(=O)[C@H](CCCNC(=N)N)NC(=O)[C@H](CSSC[C@H](NC(=O)[C@@H](N)CC(=O)O)C(=O)N[C@@H](CC(C)C)C(=O)NCC(=O)N[C@@H](Cc4ccccc4)C(=O)N[C@@H](CCSC)C(=O)N[C@@H](CCCNC(=N)N)C(=O)N[C@@H](CCCCN)C(=O)N2)NC(=O)[C@H](CSSC[C@@H](C(=O)N[C@@H](CCCCN)C(=O)N[C@@H](Cc2ccc(O)cc2)C(=O)N[C@H](C(=O)N[C@@H](Cc2ccccc2)C(N)=O)C(C)C)NC(=O)[C@H](Cc2c[nH]c4ccccc24)NC(=O)[C@H](CCCCN)NC(=O)[C@H](Cc2cnc[nH]2)NC(=O)[C@H]([C@@H](C)O)NC(=O)[C@H](CCCNC(=N)N)NC(=O)[C@H](CO)NC3=O)NC(=O)[C@H](CCCCN)NC(=O)[C@H](CC(=O)O)NC(=O)[C@H](CC(N)=O)NC(=O)[C@H](CC(=O)O)NC(=O)[C@@H]2CCCN2C1=O` [compound 7] (H-DCLGFMRKCIPDNDKCCRPALVCSRTHKWCKYVF-NH2; disulfide 2-17, 9-23, 16-30): the IC50 in assay [1] (IonWorks Quattro, Use, read-out: IWQ Use Nav1.5) was 19.5 µM; in assay [2] (Use), 0.41 µM.
